For 42 compounds, logP results are on record in ChEMBL document CHEMBL1157036, “QSPR modeling of octanol/water partition coefficient of antineoplastic agents by balance of correlations” (Eur J Med Chem, 2010).

A short description of one series: physchem. Particulars: octanol/water.
The conditions of series [1]: octanol/water.
Description: (§1) Octanol-water partition coefficient, log P of the compound

Molecules are shown by their SMILES.

Description for physchem: as §1

As a reminder, the logP is a log measure of how a compound divides between an organic and an aqueous phase. Turning to `N[C@@H](Cc1ccc(N(CCCl)CCCl)cc1)C(=O)O`, in “physchem”, the logP was 0.4. The compound `CN(C)c1nc(N(C)C)nc(N(C)C)n1` [ALTRETAMINE] yielded a logP in the series “physchem” of 1.7.

In the case of `NCC(=O)CCC(=O)O` [AMINOLEVULINIC ACID], the logP in the series “physchem” is -1.5. As for `COc1cc(NS(C)(=O)=O)ccc1Nc1c2ccccc2nc2ccccc12` [AMSACRINE], the logP in the series “physchem” is 3.8. For the compound `O=C1CN2Cc3c(ccc(Cl)c3Cl)N=C2N1` [ANAGRELIDE], in “physchem”, the lipophilicity (logP) was 2.4. Still for that read-out and setting: the figure for `C=C(c1ccc(C(=O)O)cc1)c1cc2c(cc1C)C(C)(C)CCC2(C)C` [BEXAROTENE] is 6.9. `CS(=O)(=O)OCCCCOS(C)(=O)=O` [BUSULFAN] had a logP in “physchem” of -0.3. Consider `CCCCCOC(=O)Nc1nc(=O)n([C@@H]2O[C@H](C)[C@@H](O)[C@H]2O)cc1F` [CAPECITABINE], for which, in “physchem”, the lipophilicity (logP) was 0.4. Turning to `Cc1ccc(-c2cc(C(F)(F)F)nn2-c2ccc(S(N)(=O)=O)cc2)cc1` [CELECOXIB], the logP in “physchem” came to 3.9. `O=C(O)CCCc1ccc(N(CCCl)CCCl)cc1` [CHLORAMBUCIL]: the lipophilicity (logP) in the series “physchem” was 3.9. Same read-out and setting: next, `Nc1nc(Cl)nc2c1ncn2[C@@H]1O[C@H](CO)[C@@H](O)[C@@H]1F` [CLOFARABINE]: 0. In the series “physchem”, `O=P1(N(CCCl)CCCl)NCCCO1` (configuration not stated) [CYCLOPHOSPHAMIDE ANHYDROUS] came in with a lipophilicity (logP) of 0.8.

For the compound `CN(C)/N=N/c1[nH]cnc1C(N)=O` [DACARBAZINE], the logP in series [1] is listed as -1.6.

Compound `COc1cccc2c1C(=O)c1c(O)c3c(c(O)c1C2=O)C[C@@](O)(C(C)=O)C[C@@H]3O[C@H]1C[C@H](N)[C@H](O)[C@H](C)O1` [DAUNORUBICIN] registered a logP in the series “physchem” of 0.1. For `COc1cccc2c1C(=O)c1c(O)c3c(c(O)c1C2=O)C[C@@](O)(C(=O)CO)C[C@@H]3O[C@H]1C[C@H](N)[C@H](O)[C@H](C)O1` [DOXORUBICIN], the logP in “physchem” is -0.5.

On to `COc1cccc2c1C(=O)c1c(O)c3c(c(O)c1C2=O)C[C@@](O)(C(=O)CO)C[C@@H]3O[C@H]1C[C@H](N)[C@@H](O)[C@H](C)O1` [EPIRUBICIN], for which, in “physchem”, the logP was -0.5. Still for that read-out and setting: next, `C[C@]12CC[C@@H]3c4ccc(OC(=O)N(CCCl)CCCl)cc4CC[C@H]3[C@@H]1CC[C@@H]2O` [ESTRAMUSTINE]: 5.7. As to `Nc1nc(F)nc2c1ncn2[C@@H]1O[C@H](CO)[C@@H](O)[C@@H]1O` [FLUDARABINE], the lipophilicity (logP) in the series “physchem” was -2.8. The same measure, in the same setting: the figure for `O=c1[nH]cc(F)c(=O)[nH]1` [FLUOROURACIL] is -0.8; for `Nc1ccn([C@@H]2O[C@H](CO)[C@@H](O)C2(F)F)c(=O)n1` [GEMCITABINE] it is -1.4; for `CC(=O)[C@]1(O)Cc2c(O)c3c(c(O)c2[C@@H](O[C@H]2C[C@H](N)[C@H](O)[C@H](C)O2)C1)C(=O)c1ccccc1C3=O` [IDARUBICIN] it is 0.2. `O=P1(NCCCl)OCCCN1CCCl` (configuration not stated) [IFOSFAMIDE] had a logP in the series “physchem” of 0.8.

The compound `O=NN(CCCl)C(=O)NC1CCCCC1` [LOMUSTINE] registered a logP in the series “physchem” of 3.

Consider `Sc1ncnc2nc[nH]c12` [MERCAPTOPURINE ANHYDROUS], for which the logP in “physchem” is -0.4. With `CN(Cc1cnc2nc(N)nc(N)c2n1)c1ccc(C(=O)N[C@@H](CCC(=O)O)C(=O)O)cc1` [METHOTREXATE], in “physchem”, the logP is -2.2. As for `COC(=O)CCC(=O)CN` [METHYL AMINOLEVULINATE], the log partition coefficient (logP) in the series “physchem” was -1.2.

Regarding `Clc1ccc(C(c2ccccc2Cl)C(Cl)Cl)cc1` (configuration not stated) [MITOTANE], in the series “physchem”, the logP was found to be 6. In the series “physchem”, `O=C1c2c(O)ccc(O)c2C(=O)c2c(NCCNCCO)ccc(NCCNCCO)c21` [MITOXANTRONE] had a log partition coefficient (logP) of -3.1. Still for that read-out and setting: the figure for `CC(=O)O[C@H]1C(=O)[C@@]2(C)[C@H]([C@H](OC(=O)c3ccccc3)[C@]3(O)C[C@H](OC(=O)[C@H](O)[C@@H](NC(=O)c4ccccc4)c4ccccc4)C(C)=C1C3(C)C)[C@]1(OC(C)=O)CO[C@@H]1C[C@@H]2O` [PACLITAXEL] is 3. With `Nc1nc2[nH]cc(CCc3ccc(C(=O)N[C@@H](CCC(=O)O)C(=O)O)cc3)c2c(=O)[nH]1` [PEMETREXED], the logP in series [1] is listed as -1.5.

In the series “physchem”, `OC[C@H]1O[C@@H](n2cnc3c2NC=NC[C@H]3O)C[C@@H]1O` [PENTOSTATIN] came in with a log partition coefficient (logP) of -1.1. On to `O=C(CCBr)N1CCN(C(=O)CCBr)CC1` [PIPOBROMAN], for which the logP in “physchem” was 1.1. Still for that read-out and setting: next, `Cc1nc2ccc(CN(C)c3ccc(C(=O)N[C@@H](CCC(=O)O)C(=O)O)s3)cc2c(=O)[nH]1` [RALTITREXED]: -1.2; `CN(N=O)C(=O)N[C@@H](C=O)[C@@H](O)[C@H](O)[C@H](O)CO` [STREPTOZOCIN]: -1.7. Turning to `Cn1nnc2c(C(N)=O)ncn2c1=O` [TEMOZOLOMIDE], the logP in series [1] was -2.8. Consider `COc1cc([C@@H]2c3cc4c(cc3[C@@H](O[C@@H]3O[C@@H]5CO[C@@H](c6cccs6)O[C@H]5[C@H](O)[C@H]3O)[C@H]3COC(=O)[C@H]23)OCO4)cc(OC)c1O` [TENIPOSIDE], for which the lipophilicity (logP) in series [1] was found to be 1.5. `Nc1nc2nc[nH]c2c(=S)[nH]1` [THIOGUANINE] showed a logP in the series “physchem” of -0.7. Still for that read-out and setting: next, `CC[C@@]1(O)C(=O)OCc2c1cc1n(c2=O)Cc2cc3c(CN(C)C)c(O)ccc3nc2-1` [TOPOTECAN]: 0.8; `CCCCC(=O)OCC(=O)[C@]1(O)Cc2c(O)c3c(c(O)c2[C@@H](O[C@H]2C[C@H](NC(=O)C(F)(F)F)[C@H](O)[C@H](C)O2)C1)C(=O)c1c(OC)cccc1C3=O` [VALRUBICIN]: 2.2. In series [1], `CC[C@]1(O)C[C@@H]2CN(CCc3c([nH]c4ccccc34)[C@@](C(=O)OC)(c3cc4c(cc3OC)N(C)[C@H]3[C@@](O)(C(=O)OC)[C@H](OC(C)=O)[C@]5(CC)C=CCN6CC[C@]43[C@@H]65)C2)C1` [VINBLASTINE] had a logP of 3.9. For `CC[C@]1(O)C[C@@H]2CN(CCc3c([nH]c4ccccc34)[C@@](C(=O)OC)(c3cc4c(cc3OC)N(C)[C@H]3[C@@](O)(C(N)=O)[C@H](O)[C@]5(CC)C=CCN6CC[C@]43[C@@H]65)C2)C1` [VINDESINE], the logP in “physchem” was determined as 2.9. On the same count and under the same terms, next, `CCC1=C[C@@H]2CN(C1)Cc1c([nH]c3ccccc13)[C@@](C(=O)OC)(c1cc3c(cc1OC)N(C)[C@H]1[C@@](O)(C(=O)OC)[C@H](OC(C)=O)[C@]4(CC)C=CCN5CC[C@]31[C@@H]54)C2` [VINORELBINE]: 4.
